System: GA-primed murine splenocytes
Assay: ANOVA-based pattern identification method
Format: cell-based, mouse
Source text: We sought to identify probes matching specific patterns of expression across experimental conditions using a technique that referred to as the ANOVA-based Pattern Identification Method.
To carry out the analysis in a general manner, we computed the 6 p-values required to do pairwise comparisons of all 4 conditions for all probes using the ANOVA1 function in MATLAB. We then identified sets of probes matching the desired pattern. In the example above, probes were identified as being only affected by PG if their 6 pairwise comparison pvalues matched the following pattern (pGA-PG<0.05, pPG-reference standard<0.05, pPG-Medium<0.05, pGAMedium>0.05, pGA-reference standard>0.05, preference standard-Medium>0.05).

Q: Which results are given for glatiramer acetate [GA]?
A: FYB expression level (UP IN GA AND REF ONLY): 8.25; GNL3L expression level (UP IN GA AND REF ONLY): 7.689; GPC3 expression level (UP IN GA AND REF ONLY): 5.696; GPI1 expression level (UP IN GA AND REF ONLY): 11.7829; GREM2 expression level (UP IN GA AND REF ONLY): 6.036; GTF3C5 expression level (UP IN GA AND REF ONLY): 5.928; GTL7 expression level (UP IN GA AND REF ONLY): 7.434; H2-T23 expression level (UP IN GA AND REF ONLY): 10.78; H2AFZ expression level (UP IN GA AND REF ONLY): 11.93; HEATR3 expression level (UP IN GA AND REF ONLY): 5.853; HIST1H2AG expression level (UP IN GA AND REF ONLY): 10.07; HIST1H2AK expression level (UP IN GA AND REF ONLY): 12.78; HNRNPK expression level (UP IN GA AND REF ONLY): 10.05; IL1F10 expression level (UP IN GA AND REF ONLY): 6.065; INPP4B expression level (UP IN GA AND REF ONLY): 6.314; KLRA1 expression level (UP IN GA AND REF ONLY): 5.834; KRT25 expression level (UP IN GA AND REF ONLY): 5.8; LOC235279 expression level (UP IN GA AND REF ONLY): 5.818; LOC244219 expression level (UP IN GA AND REF ONLY): 5.958; LOC331243 expression level (UP IN GA AND REF ONLY): 5.641; LOC380707 expression level (UP IN GA AND REF ONLY): 10.02; LOC381093 expression level (UP IN GA AND REF ONLY): 5.885; LOC383306 expression level (UP IN GA AND REF ONLY): 5.921; LOC383433 expression level (UP IN GA AND REF ONLY): 5.667; LOC383706 expression level (UP IN GA AND REF ONLY): 8.36; LOC384585 expression level (UP IN GA AND REF ONLY): 5.764; LOC384990 expression level (UP IN GA AND REF ONLY): 5.909; LOC386161 expression level (UP IN GA AND REF ONLY): 5.652; LOC628101 expression level (UP IN GA AND REF ONLY): 6.566; LOC667005 expression level (UP IN GA AND REF ONLY): 7.02; LOC100040244 expression level (UP IN GA AND REF ONLY): 7.257; LOC100040854 expression level (UP IN GA AND REF ONLY): 5.619; LOC100041450 expression level (UP IN GA AND REF ONLY): 6.953; LOC100043391 expression level (UP IN GA AND REF ONLY): 14.29; LOC100044190 expression level (UP IN GA AND REF ONLY): 10.67; LOC100046320 expression level (UP IN GA AND REF ONLY): 7.704; LOC100047009 expression level (UP IN GA AND REF ONLY): 6.027; LOC100048816 expression level (UP IN GA AND REF ONLY): 5.928; LSG1 expression level (UP IN GA AND REF ONLY): 7.278; MAD2L1BP expression level (UP IN GA AND REF ONLY): 9.971; MIER2 expression level (UP IN GA AND REF ONLY): 5.885; MX2 expression level (UP IN GA AND REF ONLY): 8.083; MYNN expression level (UP IN GA AND REF ONLY): 5.819; NCDN expression level (UP IN GA AND REF ONLY): 5.87; NEO1 expression level (UP IN GA AND REF ONLY): 6.159; NPC2 expression level (UP IN GA AND REF ONLY): 9.575; NUDCD2 expression level (UP IN GA AND REF ONLY): 7.102; OLFR701 expression level (UP IN GA AND REF ONLY): 5.738; OS9 expression level (UP IN GA AND REF ONLY): 9.621; OTTMUSG00000005523 expression level (UP IN GA AND REF ONLY): 6.96; PARP14 expression level (UP IN GA AND REF ONLY): 11.13; PCDHGC5 expression level (UP IN GA AND REF ONLY): 6.075; PDIA2 expression level (UP IN GA AND REF ONLY): 5.846; PDLIM1 expression level (UP IN GA AND REF ONLY): 9.528; PIBF1 expression level (UP IN GA AND REF ONLY): 6.957; PIGN expression level (UP IN GA AND REF ONLY): 5.83; PJA1 expression level (UP IN GA AND REF ONLY): 6.736; PK3 expression level (UP IN GA AND REF ONLY): 6.316; PLEKHF2 expression level (UP IN GA AND REF ONLY): 8.247; PLXNC1 expression level (UP IN GA AND REF ONLY): 6.506; PPP1CB expression level (UP IN GA AND REF ONLY): 7.717; PPP2R5C expression level (UP IN GA AND REF ONLY): 10.04; PSEN2 expression level (UP IN GA AND REF ONLY): 5.995; PTPN1 expression level (UP IN GA AND REF ONLY): 9.292; PUM2 expression level (UP IN GA AND REF ONLY): 8.717; RAB6 expression level (UP IN GA AND REF ONLY): 7.499; RAB33A expression level (UP IN GA AND REF ONLY): 6.093; RBM14 expression level (UP IN GA AND REF ONLY): 6.157; RN185 expression level (UP IN GA AND REF ONLY): 9.959; RNF8 expression level (UP IN GA AND REF ONLY): 6.852; RNF19A expression level (UP IN GA AND REF ONLY): 5.962; RNGTT expression level (UP IN GA AND REF ONLY): 6.302; RPL37 expression level (UP IN GA AND REF ONLY): 5.765; SAMHD1 expression level (UP IN GA AND REF ONLY): 12.05; SCL0002368.1_75 expression level (UP IN GA AND REF ONLY): 9.053; SELP expression level (UP IN GA AND REF ONLY): 6.569; SLC30A8 expression level (UP IN GA AND REF ONLY): 5.652; SLCO3A1 expression level (UP IN GA AND REF ONLY): 6.151; SLFN9 expression level (UP IN GA AND REF ONLY): 5.598; SPNB2 expression level (UP IN GA AND REF ONLY): 5.753; STAT3 expression level (UP IN GA AND REF ONLY): 11.07; STIL expression level (UP IN GA AND REF ONLY): 5.727; TELO2 expression level (UP IN GA AND REF ONLY): 5.873; TMPO expression level (UP IN GA AND REF ONLY): 8.63; TNP2 expression level (UP IN GA AND REF ONLY): 5.959; TOP2A expression level (UP IN GA AND REF ONLY): 7.085; TOR1A expression level (UP IN GA AND REF ONLY): 7.512; TPM4 expression level (UP IN GA AND REF ONLY): 7.481; TRAPPC2 expression level (UP IN GA AND REF ONLY): 5.833; TRMT2A expression level (UP IN GA AND REF ONLY): 6.694; TSPAN14 expression level (UP IN GA AND REF ONLY): 9.848; TTLL4 expression level (UP IN GA AND REF ONLY): 5.973; UBE2Z expression level (UP IN GA AND REF ONLY): 6.169; USF1 expression level (UP IN GA AND REF ONLY): 6.915; V1RD18 expression level (UP IN GA AND REF ONLY): 5.691; VMN2R81 expression level (UP IN GA AND REF ONLY): 5.992; VMN2R89 expression level (UP IN GA AND REF ONLY): 6.242; VPS37B expression level (UP IN GA AND REF ONLY): 10.56; WAPAL expression level (UP IN GA AND REF ONLY): 6.423; WDR45L expression level (UP IN GA AND REF ONLY): 7.365; ZDHHC21 expression level (UP IN GA AND REF ONLY): 8.562; ZFP277 expression level (UP IN GA AND REF ONLY): 9.951; ZFP281 expression level (UP IN GA AND REF ONLY): 8.974; ZFP800 expression level (UP IN GA AND REF ONLY): 6.783; ZNF24 expression level (UP IN GA AND REF ONLY): 6.171; ZWILCH expression level (UP IN GA AND REF ONLY): 6.29; ZZZ3 expression level (UP IN GA AND REF ONLY): 6.181; 5YNGR1 expression (UP IN generic ONLY): 5.954; 1200003C05RIK expression (UP IN generic ONLY): 9.103; 1200011M11RIK expression (UP IN generic ONLY): 6.322; 1700021P22RIK expression (UP IN generic ONLY): 6.037; 1700029G01RIK expression (UP IN generic ONLY): 6.738; 1700063H04RIK expression (UP IN generic ONLY): 5.82; 2210010L05RIK expression (UP IN generic ONLY): 5.598; 2310046A06RIK expression (UP IN generic ONLY): 5.634; 2310051M13RIK expression (UP IN generic ONLY): 5.609; 2600005J22RIK expression (UP IN generic ONLY): 5.732; 2610209A20RIK expression (UP IN generic ONLY): 6.008; 2810046M22RIK expression (UP IN generic ONLY): 5.995; 2810453I06RIK expression (UP IN generic ONLY): 8.506; 2900090M10RIK expression (UP IN generic ONLY): 5.695; 3110070M22RIK expression (UP IN generic ONLY): 6.16; 4930430K04RIK expression (UP IN generic ONLY): 5.499; 4930432K21RIK expression (UP IN generic ONLY): 6.593; 4930471I01RIK expression (UP IN generic ONLY): 5.854; 4930481A15RIK expression (UP IN generic ONLY): 5.879; 4930543G11RIK expression (UP IN generic ONLY): 5.775

Reference: patent publication US20140193827A1 (TEVA PHARMACEUTICAL INDUSTRIES, LTD., priority 2013, published 2014)
